One test concerns the target T1, WEE1 (Homo sapiens, UniProt P30291+Q96SW2).
T1 construct: effects of the compounds of the present disclosure on the expression of target proteins in cells; endogenous in cells; host or cells: human PBMCs (hPBMCs)
Put plainly: Western-blot assay, substrate protein degradation in hPBMCs: WEE1. It counts as cell-based. The conditions noted are these: for substrate protein remaining % WEE1: 24 hours of compound treatment, 50 nM and 500 nM.

The target of the next test is T2, IKZF1 (Homo sapiens, UniProt Q13422+Q96SW2).
T2 construct: effects of the compounds of the present disclosure on the expression of target proteins in cells; endogenous in cells; host or cells: human PBMCs (hPBMCs)
Put plainly: Western-blot assay, substrate protein degradation in hPBMCs: IKZF1. It counts as cell-based. The conditions noted are these: for substrate protein remaining % IKZF1: 24 hours of compound treatment, 50 nM and 500 nM.

For another test, the target named is T3, IKZF2 (Homo sapiens, UniProt Q96SW2+Q9UKS7).
T3 construct: effects of the compounds of the present disclosure on the expression of target proteins in cells; endogenous in cells; host or cells: human PBMCs (hPBMCs)
Put plainly: Western-blot assay, substrate protein degradation in hPBMCs: IKZF2. In kind it is cell-based. The conditions noted are these: for substrate protein remaining % IKZF2: 24 hours of compound treatment, 50 nM and 500 nM.

Another test addresses T4, IKZF3 (Homo sapiens, UniProt Q96SW2+Q9UKT9).
T4 construct: effects of the compounds of the present disclosure on the expression of target proteins in cells; endogenous in cells; host or cells: human PBMCs (hPBMCs)
The experiment in a line: Western-blot assay, substrate protein degradation in hPBMCs: IKZF3. The conditions noted are these: for substrate protein remaining % IKZF3: 24 hours of compound treatment, 50 nM and 500 nM. In kind it is cell-based.

The target of the next test is T5, CK1α (Homo sapiens, UniProt P48729+Q96SW2).
T5 construct: effects of the compounds of the present disclosure on the expression of target proteins in cells; endogenous in cells; host or cells: human PBMCs (hPBMCs)
The experiment in a line: Western-blot assay, substrate protein degradation in hPBMCs: CK1α. It counts as cell-based. The conditions noted are these: for substrate protein remaining % CK1α: 24 hours of compound treatment, 50 nM and 500 nM.

The next test addresses T6, GSPT1 (Homo sapiens, UniProt P15170+Q96SW2).
T6 construct: effects of the compounds of the present disclosure on the expression of target proteins in cells; endogenous in cells; host or cells: human PBMCs (hPBMCs)
Put plainly: Western-blot assay, substrate protein degradation in hPBMCs: GSPT1. In kind it is cell-based. The conditions noted are these: for substrate protein remaining % GSPT1: 24 hours of compound treatment, 50 nM and 500 nM.

The next test concerns MV-4-11. Put plainly: Cell viability assay (CellTiter-Meiluncell Luminescent), tumor cell proliferation, MV-4-11. The conditions noted are these: Homo sapiens, MV4-11, 96 h; for inhibition at 0.01 µM: read-out: Inhibition Rate at 10 nM (%); for inhibition at 0.5 µM: read-out: Inhibition Rate at 500 nM (%).
For the next test, the system named is H292. The experiment in a line: Cell viability assay (CellTiter-Meiluncell Luminescent), tumor cell proliferation, H292. The conditions noted are these: Homo sapiens, NCI-H292, 96 h.
The mark [1] stands for this setting: compounds at 50 nM and 500 nM, 24 hours.

Structures are written as SMILES.

For orientation: inhibition means the percentage by which the read-out fell short of the control.

T1 sequence (P30291 whole entry): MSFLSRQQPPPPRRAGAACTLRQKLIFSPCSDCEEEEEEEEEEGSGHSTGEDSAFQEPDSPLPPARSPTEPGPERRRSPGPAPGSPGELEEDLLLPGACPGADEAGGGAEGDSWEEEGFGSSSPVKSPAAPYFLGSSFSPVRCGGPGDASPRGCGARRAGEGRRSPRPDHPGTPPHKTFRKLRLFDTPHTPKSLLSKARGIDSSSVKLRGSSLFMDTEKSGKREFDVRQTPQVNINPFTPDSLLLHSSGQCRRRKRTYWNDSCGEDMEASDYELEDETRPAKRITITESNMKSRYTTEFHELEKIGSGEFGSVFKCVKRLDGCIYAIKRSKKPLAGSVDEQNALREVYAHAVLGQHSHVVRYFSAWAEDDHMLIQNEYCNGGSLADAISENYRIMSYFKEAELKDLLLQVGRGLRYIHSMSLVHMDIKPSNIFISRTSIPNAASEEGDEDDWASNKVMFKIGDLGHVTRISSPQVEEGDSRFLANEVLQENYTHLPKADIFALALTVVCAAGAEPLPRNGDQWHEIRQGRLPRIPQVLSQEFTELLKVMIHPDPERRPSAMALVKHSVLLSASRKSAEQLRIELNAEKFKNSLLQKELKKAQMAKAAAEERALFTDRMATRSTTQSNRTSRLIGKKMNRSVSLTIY
T1 sequence (Q96SW2 whole entry): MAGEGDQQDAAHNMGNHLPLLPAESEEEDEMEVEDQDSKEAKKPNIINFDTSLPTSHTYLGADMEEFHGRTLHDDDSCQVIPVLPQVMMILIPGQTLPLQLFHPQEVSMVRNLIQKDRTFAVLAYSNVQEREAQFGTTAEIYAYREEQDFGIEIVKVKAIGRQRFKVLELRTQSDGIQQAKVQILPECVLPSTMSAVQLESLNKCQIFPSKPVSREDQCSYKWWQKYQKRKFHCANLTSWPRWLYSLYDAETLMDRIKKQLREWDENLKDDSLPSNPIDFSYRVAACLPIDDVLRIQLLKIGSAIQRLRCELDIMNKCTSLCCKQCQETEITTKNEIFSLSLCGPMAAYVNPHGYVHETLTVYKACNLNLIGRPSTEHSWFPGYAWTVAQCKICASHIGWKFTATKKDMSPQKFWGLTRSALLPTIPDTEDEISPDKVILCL
T1 sequence (Q16531 whole entry partner): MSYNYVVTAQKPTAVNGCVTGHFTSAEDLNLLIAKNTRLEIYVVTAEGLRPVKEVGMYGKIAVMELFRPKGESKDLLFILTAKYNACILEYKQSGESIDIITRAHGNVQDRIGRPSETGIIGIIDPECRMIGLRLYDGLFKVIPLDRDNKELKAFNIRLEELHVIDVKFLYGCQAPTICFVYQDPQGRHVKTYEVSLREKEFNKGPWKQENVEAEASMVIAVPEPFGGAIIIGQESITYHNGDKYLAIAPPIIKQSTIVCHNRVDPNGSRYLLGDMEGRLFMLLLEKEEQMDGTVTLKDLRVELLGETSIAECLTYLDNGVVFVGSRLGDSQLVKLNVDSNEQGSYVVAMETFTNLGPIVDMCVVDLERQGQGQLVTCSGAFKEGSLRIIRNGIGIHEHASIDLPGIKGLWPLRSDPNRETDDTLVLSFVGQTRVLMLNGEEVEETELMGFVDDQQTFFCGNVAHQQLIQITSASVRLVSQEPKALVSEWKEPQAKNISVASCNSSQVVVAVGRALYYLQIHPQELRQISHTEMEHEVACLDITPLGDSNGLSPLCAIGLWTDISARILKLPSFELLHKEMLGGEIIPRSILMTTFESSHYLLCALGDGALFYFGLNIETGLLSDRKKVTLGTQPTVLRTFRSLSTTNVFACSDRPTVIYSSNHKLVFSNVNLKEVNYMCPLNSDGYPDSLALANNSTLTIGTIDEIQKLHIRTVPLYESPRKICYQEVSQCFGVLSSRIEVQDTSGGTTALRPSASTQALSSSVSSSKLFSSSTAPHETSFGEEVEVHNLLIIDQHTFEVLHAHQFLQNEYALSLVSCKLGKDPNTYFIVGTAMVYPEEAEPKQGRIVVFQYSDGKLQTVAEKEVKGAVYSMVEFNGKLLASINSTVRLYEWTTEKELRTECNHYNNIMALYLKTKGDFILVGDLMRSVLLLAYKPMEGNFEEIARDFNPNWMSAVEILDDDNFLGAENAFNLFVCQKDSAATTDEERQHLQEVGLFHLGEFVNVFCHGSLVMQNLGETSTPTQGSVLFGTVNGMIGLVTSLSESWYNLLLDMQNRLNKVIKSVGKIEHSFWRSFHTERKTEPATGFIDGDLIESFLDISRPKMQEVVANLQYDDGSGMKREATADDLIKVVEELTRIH
T5 sequence (P48729 whole entry): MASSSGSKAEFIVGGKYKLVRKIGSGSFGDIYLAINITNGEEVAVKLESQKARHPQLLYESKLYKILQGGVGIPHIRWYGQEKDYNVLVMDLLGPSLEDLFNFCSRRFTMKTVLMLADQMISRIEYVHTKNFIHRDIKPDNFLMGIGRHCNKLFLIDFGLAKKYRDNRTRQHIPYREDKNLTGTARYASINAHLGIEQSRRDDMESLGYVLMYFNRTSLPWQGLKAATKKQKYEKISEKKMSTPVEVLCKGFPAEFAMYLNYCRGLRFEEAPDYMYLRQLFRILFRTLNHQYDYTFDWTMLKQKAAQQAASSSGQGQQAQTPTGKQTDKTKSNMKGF
T5 sequence (Q96SW2 whole entry): as the sequence (Q96SW2 whole entry) above
T5 sequence (Q16531 whole entry partner): as the sequence (Q16531 whole entry partner) above
T6 sequence (P15170 whole entry): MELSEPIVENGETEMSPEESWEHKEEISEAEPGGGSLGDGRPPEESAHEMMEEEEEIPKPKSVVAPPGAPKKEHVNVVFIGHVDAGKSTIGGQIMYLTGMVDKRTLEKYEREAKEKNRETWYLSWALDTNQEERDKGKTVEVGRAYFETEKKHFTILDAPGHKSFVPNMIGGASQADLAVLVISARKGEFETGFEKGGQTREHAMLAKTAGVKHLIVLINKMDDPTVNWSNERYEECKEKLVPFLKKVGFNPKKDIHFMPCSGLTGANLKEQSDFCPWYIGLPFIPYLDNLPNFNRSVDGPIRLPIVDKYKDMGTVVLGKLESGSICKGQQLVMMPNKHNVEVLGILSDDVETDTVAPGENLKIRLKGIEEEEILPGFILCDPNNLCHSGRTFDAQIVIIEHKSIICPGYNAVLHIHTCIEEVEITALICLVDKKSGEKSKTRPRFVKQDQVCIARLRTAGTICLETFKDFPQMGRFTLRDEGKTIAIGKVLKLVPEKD
T6 sequence (Q96SW2 whole entry): as the sequence (Q96SW2 whole entry) above
T6 sequence (Q16531 whole entry partner): as the sequence (Q16531 whole entry partner) above
T3 sequence (Q9UKS7 whole entry): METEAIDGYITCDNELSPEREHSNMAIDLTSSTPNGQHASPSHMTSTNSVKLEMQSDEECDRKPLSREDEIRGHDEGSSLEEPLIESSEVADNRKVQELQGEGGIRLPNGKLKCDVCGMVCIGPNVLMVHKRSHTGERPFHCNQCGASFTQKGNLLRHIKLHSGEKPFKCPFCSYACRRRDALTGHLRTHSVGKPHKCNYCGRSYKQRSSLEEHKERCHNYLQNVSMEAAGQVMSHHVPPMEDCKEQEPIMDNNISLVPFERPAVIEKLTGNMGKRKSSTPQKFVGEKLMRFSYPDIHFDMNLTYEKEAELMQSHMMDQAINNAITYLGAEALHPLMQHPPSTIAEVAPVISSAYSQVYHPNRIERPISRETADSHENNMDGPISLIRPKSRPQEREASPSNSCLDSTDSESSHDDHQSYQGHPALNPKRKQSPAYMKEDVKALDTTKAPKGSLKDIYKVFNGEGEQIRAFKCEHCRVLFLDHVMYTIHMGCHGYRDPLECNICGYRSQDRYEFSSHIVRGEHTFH
T3 sequence (Q96SW2 whole entry): as the sequence (Q96SW2 whole entry) above
T3 sequence (Q16531 whole entry partner): as the sequence (Q16531 whole entry partner) above
T2 sequence (Q13422 whole entry): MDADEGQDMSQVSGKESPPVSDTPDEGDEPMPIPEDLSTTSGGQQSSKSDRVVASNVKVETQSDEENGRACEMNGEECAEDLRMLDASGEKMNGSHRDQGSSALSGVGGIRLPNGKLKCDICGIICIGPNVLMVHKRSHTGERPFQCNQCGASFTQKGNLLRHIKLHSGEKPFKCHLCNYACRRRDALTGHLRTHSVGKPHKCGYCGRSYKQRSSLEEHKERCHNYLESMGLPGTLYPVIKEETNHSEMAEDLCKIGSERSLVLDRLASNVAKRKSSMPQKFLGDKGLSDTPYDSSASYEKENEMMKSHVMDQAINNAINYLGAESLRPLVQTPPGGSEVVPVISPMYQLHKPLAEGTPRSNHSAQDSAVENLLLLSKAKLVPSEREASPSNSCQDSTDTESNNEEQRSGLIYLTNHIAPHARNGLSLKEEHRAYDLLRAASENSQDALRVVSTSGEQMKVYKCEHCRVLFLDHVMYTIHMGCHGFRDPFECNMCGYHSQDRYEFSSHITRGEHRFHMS
T2 sequence (Q96SW2 whole entry): as the sequence (Q96SW2 whole entry) above
T2 sequence (Q16531 whole entry partner): as the sequence (Q16531 whole entry partner) above

As to `O=C1CCN(N2Cc3cc(CN4CCC(c5cccc(C(F)(F)F)c5)CC4)ccc3C2=O)C(=O)N1` [GT-06892, 1-(1-oxo-5-((4-(3-(trifluoromethyl)phenyl)piperidin-1-yl)methyl)isoindolin-2-yl)dihydropyrimidine-2,4(1H,3H)-dione], on WEE1 (setting [1]), the “WEE1 substrate protein remaining %” value was “B ("B" is defined as 80%< substrate protein remaining %≤ 100%)”. Moreover, the “IKZF1 substrate protein remaining %” value at IKZF1 (setting [1]) was “A ("A" is defined as 0% ≤ substrate protein remaining % ≤ 80%)”. Moreover, at IKZF2 (setting [1]), the “IKZF2 substrate protein remaining %” value is “A ("A" is defined as 0% ≤ substrate protein remaining % ≤ 80%)”. The “IKZF3 substrate protein remaining %” value at IKZF3 (setting [1]) is “B ("B" is defined as 80%< substrate protein remaining %≤ 100%)”. Also, at CK1α (setting [1]), the “CK1α substrate protein remaining %” value is “B ("B" is defined as 80%< substrate protein remaining %≤ 100%)”. Also, the “GSPT1 substrate protein remaining %” value on GSPT1 (setting [1]) is “A ("A" is defined as 0% ≤ substrate protein remaining % ≤ 80%)”. The IC50 in the test with MV-4-11 (read-out: inhibitory activity (IC50, nM) against tumor cells proliferation, MV-4-11) lay in the range of 500 to 1000 nM.
For the compound `O=C1CCN(N2Cc3cc(CN4CCN(c5ncnc6sc(-c7ccccc7)cc56)CC4)ccc3C2=O)C(=O)N1` [GT-08064, 1-(1-oxo-5-((4-(6-phenylthieno[2,3-d]pyrimidin-4-yl)piperazin-1-yl)methyl)isoindolin-2-yl)dihydropyrimidine-2,4(1H,3H)-dione], the “substrate protein remaining % WEE1” value on WEE1 is “B (80%< substrate protein remaining %≤ 100%)”. Further, the “substrate protein remaining % IKZF1” value on IKZF1 was “B (80%< substrate protein remaining %≤ 100%)”. In addition, the “substrate protein remaining % IKZF2” value on IKZF2 is listed as “A (0% ≤ substrate protein remaining % ≤ 80%)”. For the same compound, the “substrate protein remaining % IKZF3” value at IKZF3 is given as “B (80%< substrate protein remaining %≤ 100%)”. In addition, at CK1α, the “substrate protein remaining % CK1α” value is listed as “B (80%< substrate protein remaining %≤ 100%)”. On GSPT1, the “substrate protein remaining % GSPT1” value is reported as “B (80%< substrate protein remaining %≤ 100%)”. In the test on MV-4-11, the inhibition at 0.01 µM was in the range of 25 to 30% and the inhibition at 0.5 µM is 10 to 18%.
As for `Cc1nc(N2CCN(Cc3ccc4c(c3)CN(N3CCC(=O)NC3=O)C4=O)CC2)c2ccsc2n1` [GT-08067, 1-(5-((4-(2-methylthieno[2,3-d]pyrimidin-4-yl)piperazin-1-yl)methyl)-1-oxoisoindolin-2-yl)dihydropyrimidine-2,4(1H,3H)-dione], the “substrate protein remaining % WEE1” value at WEE1 is “B (80%< substrate protein remaining %≤ 100%)”. Also, at IKZF1, the “substrate protein remaining % IKZF1” value is “B (80%< substrate protein remaining %≤ 100%)”. Besides, on IKZF2, the “substrate protein remaining % IKZF2” value is listed as “A (0% ≤ substrate protein remaining % ≤ 80%)”. Further, the “substrate protein remaining % IKZF3” value at IKZF3 is “B (80%< substrate protein remaining %≤ 100%)”. Further, the “substrate protein remaining % CK1α” value on CK1α is listed as “B (80%< substrate protein remaining %≤ 100%)”. Moreover, the “substrate protein remaining % GSPT1” value on GSPT1 was “B (80%< substrate protein remaining %≤ 100%)”. The results for the inhibition at 0.01 µM in the test with H292 (read-out: Inhibition Rate at 10 nM (%)) and in the test with MV-4-11 were 20 to 40% and 60 to 80%, respectively. In addition, the inhibition at 0.5 µM is 20 to 40% in the test on H292 (read-out: Inhibition Rate at 500 nM (%)) and 40 to 60% in the test with MV-4-11.
For the compound `O=C1CCN(N2Cc3cc(CN4CCN(c5ncnc6sc7c(c56)CCCC7)CC4)ccc3C2=O)C(=O)N1` [GT-08077, 1-(1-oxo-5-((4-(5,6,7,8-tetrahydrobenzo[4,5]thieno[2,3-d]pyrimidin-4-yl)piperazin-1-yl)methyl)isoindolin-2-yl)dihydropyrimidine-2,4(1H,3H)-dione], the “substrate protein remaining % WEE1” value at WEE1 is reported as “B (80%< substrate protein remaining %≤ 100%)”. For the same compound, the “substrate protein remaining % IKZF1” value at IKZF1 is on record as “B (80%< substrate protein remaining %≤ 100%)”. Also, the “substrate protein remaining % IKZF2” value at IKZF2 was “B (80%< substrate protein remaining %≤ 100%)”. The “substrate protein remaining % IKZF3” value at IKZF3 is “B (80%< substrate protein remaining %≤ 100%)”. On CK1α, the “substrate protein remaining % CK1α” value is “A (0% ≤ substrate protein remaining % ≤ 80%)”. For the same compound, at GSPT1, the “substrate protein remaining % GSPT1” value is “A (0% ≤ substrate protein remaining % ≤ 80%)”. Moreover, in the test with MV-4-11, the inhibition at 0.01 µM is 25 to 30% and the inhibition at 0.5 µM was 25 to 30%.
In the case of `Cc1cc2c(N3CCN(Cc4ccc5c(c4)C(=O)N(N4CCC(=O)NC4=O)C5=O)CC3)ncnc2s1` [GT-08092, 2-(2,4-dioxotetrahydropyrimidin-1(2H)-yl)-5-((4-(6-methylthieno[2,3-d]pyrimidin-4-yl)piperazin-1-yl)methyl)isoindoline-1,3-dione], at WEE1, the “substrate protein remaining % WEE1” value is “A (0% ≤ substrate protein remaining % ≤ 80%)”. The “substrate protein remaining % IKZF1” value on IKZF1 was “B (80%< substrate protein remaining %≤ 100%)”. Also, on IKZF2, the “substrate protein remaining % IKZF2” value is reported as “B (80%< substrate protein remaining %≤ 100%)”. Besides, the “substrate protein remaining % IKZF3” value at IKZF3 is “B (80%< substrate protein remaining %≤ 100%)”. In addition, on CK1α, the “substrate protein remaining % CK1α” value is listed as “A (0% ≤ substrate protein remaining % ≤ 80%)”. For the same compound, on GSPT1, the “substrate protein remaining % GSPT1” value is on record as “A (0% ≤ substrate protein remaining % ≤ 80%)”. Besides, in the test with MV-4-11, the inhibition at 0.01 µM is 10 to 18% and the inhibition at 0.5 µM is 30 to 40%.
Take `Cc1sc2ncnc(N3CCCN(Cc4ccc5c(c4)C(=O)N(N4CCC(=O)NC4=O)C5=O)CC3)c2c1C` [GT-08095, 5-((4-(5,6-dimethylthieno[2,3-d]pyrimidin-4-yl)-1,4-diazepan-1-yl)methyl)-2-(2,4-dioxotetrahydropyrimidin-1(2H)-yl)isoindoline-1,3-dione]: on WEE1, the “substrate protein remaining % WEE1” value is recorded as “A (0% ≤ substrate protein remaining % ≤ 80%)”. The “substrate protein remaining % IKZF1” value at IKZF1 is “B (80%< substrate protein remaining %≤ 100%)”. Moreover, the “substrate protein remaining % IKZF2” value on IKZF2 is “B (80%< substrate protein remaining %≤ 100%)”. Moreover, the “substrate protein remaining % IKZF3” value on IKZF3 is given as “B (80%< substrate protein remaining %≤ 100%)”. The “substrate protein remaining % CK1α” value on CK1α is “A (0% ≤ substrate protein remaining % ≤ 80%)”. The “substrate protein remaining % GSPT1” value on GSPT1 is “B (80%< substrate protein remaining %≤ 100%)”. Further, in the test on MV-4-11, the inhibition at 0.01 µM is 25 to 30% and the inhibition at 0.5 µM lay in the range of 18 to 25%.
For the compound `O=C1CCN(N2C(=O)c3ccc(CN4CCC(c5ncnc6sccc56)CC4)cc3C2=O)C(=O)N1` [GT-08106, 2-(2,4-dioxotetrahydropyrimidin-1(2H)-yl)-5-((4-(thieno[2,3-d]pyrimidin-4-yl)piperidin-1-yl)methyl)isoindoline-1,3-dione], the “substrate protein remaining % WEE1” value at WEE1 is reported as “A (0% ≤ substrate protein remaining % ≤ 80%)”. For the same compound, at IKZF1, the “substrate protein remaining % IKZF1” value is “B (80%< substrate protein remaining %≤ 100%)”. The “substrate protein remaining % IKZF2” value at IKZF2 is reported as “B (80%< substrate protein remaining %≤ 100%)”. For the same compound, the “substrate protein remaining % IKZF3” value on IKZF3 is reported as “B (80%< substrate protein remaining %≤ 100%)”. Also, the “substrate protein remaining % CK1α” value at CK1α was “B (80%< substrate protein remaining %≤ 100%)”. Further, the “substrate protein remaining % GSPT1” value at GSPT1 was “A (0% ≤ substrate protein remaining % ≤ 80%)”. Also, in the test on MV-4-11, the inhibition at 0.01 µM is 10 to 18% and the inhibition at 0.5 µM was in the range of 18 to 25%.

The values above are taken from EP4722207A1, “OXOISOINDOLINYL-SUBSTITUTED TETRAHYDROPYRIMIDINEDIONE DERIVATIVE AND USE THEREOF” (Gluetacs Therapeutics (Shanghai) Co., Ltd., priority 2023, dated 2024).
